ChEMBL document CHEMBL1142828, “Trypanocidal activity of (-)-cubebin derivatives against free amastigote forms of Trypanosoma cruzi” (Bioorg Med Chem Lett, 2005)

How the values were obtained:
[1] = tested on: Trypanosoma cruzi; experiment: Percentage delyse against amastigote forms of Y strain of Trypanosoma cruzi at 8 uM; assay type: functional
[2] = tested on: Trypanosoma cruzi; experiment: Percentage delyse against amastigote forms of Y strain of Trypanosoma cruzi at 32 uM; assay type: functional
[3] = tested on: Trypanosoma cruzi; experiment: Percentage delyse against amastigote forms of Y strain of Trypanosoma cruzi at 2 uM; assay type: functional
[4] = tested on: Trypanosoma cruzi; experiment: Trypanocidal activity against amastigote forms of Y strain of Trypanosoma cruzi; assay type: functional, organism-based
[5] = tested on: Trypanosoma cruzi; experiment: Percentage delyse against amastigote forms of Y strain of Trypanosoma cruzi at 0.5 uM; assay type: functional

CN(C)CCOC1OC[C@H](Cc2ccc3c(c2)OCO3)[C@@H]1Cc1ccc2c(c1)OCO2 (stereo not given in full)
Delyse [1]: 50.8%
Delyse [2]: 57.8%
Delyse [3]: 55.4%
IC50 [4]: 4.7 µM
Delyse [5]: 33.6%

O=C(Cn1ccnc1[N+](=O)[O-])NCc1ccccc1 [BENZNIDAZOLE]
Delyse [1]: 69%
Delyse [2]: 68%
Delyse [3]: 67%
IC50 [4]: 0.8 µM
Delyse [5]: 38.4%

CC(=O)OC1OC[C@H](Cc2ccc3c(c2)OCO3)[C@@H]1Cc1ccc2c(c1)OCO2 (stereo not given in full)
Delyse [1]: 29%
Delyse [2]: 26.4%
Delyse [3]: 26%
IC50 [4]: ~15000 µM
Delyse [5]: 14.5%

O=C1OC[C@H](Cc2ccc3c(c2)OCO3)[C@@H]1Cc1ccc2c(c1)OCO2
Delyse [1]: 57.6%
Delyse [2]: 63.6%
Delyse [3]: 57%
IC50 [4]: 0.7 µM
Delyse [5]: 47.6%

O=C1OC[C@H](Cc2cc3c(cc2[N+](=O)[O-])OCO3)[C@@H]1Cc1cc2c(cc1[N+](=O)[O-])OCO2
Delyse [1]: 38.9%
Delyse [2]: 48.5%
Delyse [3]: 48.7%
IC50 [4]: 95.3 µM
Delyse [5]: 34.6%

c1ccc(COC2OC[C@H](Cc3ccc4c(c3)OCO4)[C@@H]2Cc2ccc3c(c2)OCO3)cc1 (stereo not given in full)
Delyse [1]: 46.8%
Delyse [2]: 68.8%
Delyse [3]: 38%
IC50 [4]: 5.7 µM
Delyse [5]: 37%
